Assay results as given in patent publication US20220095618A1, “HERBICIDAL COMPOSITIONS” (SYNGENTA CROP PROTECTION AG, priority 2019, published 2022).

Experiments:
Assay in all cases: Post-emergence efficacy of compounds of Formula (I) (B1), glasshouse
Type in all cases: in vivo
[1] = system: Digitaria sanguinalis (DIGSA); settings: Application Rate 500 g/Ha, evaluated after 13 days; for pest or weed control at 500 g/ha: Digitaria sanguinalis, post-emergence, 312 h, read-out: Control of DIGSA after post-emergence application (100=total damage to plant; 0=no damage to plant)
Procedure: (§1) Seeds of a variety of test species were sown in standard Iaom-based soil in pots:— Ipomoea hederacea (IPOHE), Euphorbia heterophylla (EPHHL), Chenopodium album (CHEAL), Amaranthus palmeri (AMAPA), Lolium perenne (LOLPE), Digitaria sanguinalis (DIGSA), Eleusine indica (ELEIN), Echinochloa crus-galli (ECHCG), Setaria faberi (SETFA). After cultivation for 14 days (post-emergence) under controlled conditions in a glasshouse (at 24/16° C., day/night; 14 hours light; 65% humidity), the plants were sprayed with an aqueous spray solution derived from the dissolution of the technical active ingredient Formula (I) in a small amount of acetone and a special solvent and emulsifier mixture referred to as IF50 (11.12% Emulsogen EL360 TM+44.44% N-methylpyrrolidone+44.44% Dowanol DPM glycol ether), to create a 50 g/I solution which was then diluted to required concentration using 0.25% or 1% Empicol ESC70 (Sodium lauryl ether sulphate)+1% ammonium sulphate as diluent. The delivery of the aqueous spray solution was via a laboratory track sprayer which delivered the aqueous spray composition at a rate of 200 litres per hectare, using a flat fan nozzle (Teejet 11002VS) and an application volume of 200 litre/ha (at 2 bar).
(§2) The test plants were then grown in a glasshouse under controlled conditions (at 24/16° C., day/night; 14 hours light; 65% humidity) and watered twice daily. After 13 days the test was evaluated (100=total damage to plant; 0=no damage to plant).

Lolium perenne (LOLPE) = settings: Application Rate 500 g/Ha, evaluated after 13 days; for pest or weed control at 500 g/ha: Lolium perenne, post-emergence, 312 h, read-out: Control of LOLPE after post-emergence application (100=total damage to plant; 0=no damage to plant)
Procedure: as §1, §2

Setaria faberi (SETFA) = settings: Application Rate 500 g/Ha, evaluated after 13 days; for pest or weed control at 500 g/ha: Setaria faberi, post-emergence, 312 h, read-out: Control of SETFA after post-emergence application (100=total damage to plant; 0=no damage to plant)
Procedure: as §1, §2

[2] = system: Amaranthus palmeri (AMAPA); settings: Application Rate 500 g/Ha, evaluated after 13 days; for pest or weed control at 500 g/ha: Amaranthus palmeri, post-emergence, 312 h, read-out: Control of AMAPA after post-emergence application (100=total damage to plant; 0=no damage to plant)
Procedure: as §1, §2

Eleusine indica (ELEIN) = settings: Application Rate 500 g/Ha, evaluated after 13 days; for pest or weed control at 500 g/ha: Eleusine indica, post-emergence, 312 h, read-out: Control of ELEIN after post-emergence application (100=total damage to plant; 0=no damage to plant)
Procedure: as §1, §2

[3] = system: Echinochloa crus-galli (ECHCG); settings: Application Rate 500 g/Ha, evaluated after 13 days; for pest or weed control at 500 g/ha: Echinochloa crus-galli, post-emergence, 312 h, read-out: Control of ECHCG after post-emergence application (100=total damage to plant; 0=no damage to plant)
Procedure: as §1, §2

[4] = system: Euphorbia heterophylla (EPHHL); settings: Application Rate 500 g/Ha, evaluated after 13 days; for pest or weed control at 500 g/ha: Euphorbia heterophylla, post-emergence, 312 h, read-out: Control of EPHHL after post-emergence application (100=total damage to plant; 0=no damage to plant)
Procedure: as §1, §2

[5] = system: Ipomoea hederacea (IPOHE); settings: Application Rate 500 g/Ha, evaluated after 13 days; for pest or weed control at 500 g/ha: Ipomoea hederacea, post-emergence, 312 h, read-out: Control of IPOHE after post-emergence application (100=total damage to plant; 0=no damage to plant)
Procedure: as §1, §2

[6] = system: Chenopodium album (CHEAL); settings: Application Rate 500 g/Ha, evaluated after 13 days; for pest or weed control at 500 g/ha: Chenopodium album, post-emergence, 312 h, read-out: Control of CHEAL after post-emergence application (100=total damage to plant; 0=no damage to plant)
Procedure: as §1, §2

Row | SMILES | pest or weed control at 500 g/ha [1] [%] | Control of LOLPE after post-emergence application (100=total damage to plant; 0=no damage to plant) (Lolium perenne (LOLPE)) | Control of SETFA after post-emergence application (100=total damage to plant; 0=no damage to plant) (Setaria faberi (SETFA)) | pest or weed control at 500 g/ha [2] [%] | pest or weed control at 500 g/ha (Eleusine indica (ELEIN)) [%] | pest or weed control at 500 g/ha [3] [%] | Control of EPHHL after post-emergence application (100=total damage to plant; 0=no damage to plant) [4] | pest or weed control at 500 g/ha [5] [%] | pest or weed control at 500 g/ha [6] [%] | pest or weed control at 500 g/ha (Lolium perenne (LOLPE)) [%] | pest or weed control at 500 g/ha (Setaria faberi (SETFA)) [%] | pest or weed control at 500 g/ha [4] [%] | Control of DIGSA after post-emergence application (100=total damage to plant; 0=no damage to plant) [1] | Control of AMAPA after post-emergence application (100=total damage to plant; 0=no damage to plant) [2] | Control of ELEIN after post-emergence application (100=total damage to plant; 0=no damage to plant) (Eleusine indica (ELEIN)) | Control of ECHCG after post-emergence application (100=total damage to plant; 0=no damage to plant) [3] | Control of IPOHE after post-emergence application (100=total damage to plant; 0=no damage to plant) [5] | Control of CHEAL after post-emergence application (100=total damage to plant; 0=no damage to plant) [6]
1 | O=C(O)CC[n+]1ccc(-c2cnccn2)cn1.O=C([O-])C(F)(F)F [Compound 1.005, 3-(4-pyrazin-2-ylpyridazin-1-ium-1-yl)propanoic acid 2,2,2-trifluoroacetate] | 100 | 80 | 60 | 100 | 100 | 100 | 70 | 30 | 100 |  |  |  |  |  |  |  |  | 
2 | Cc1ccnc(-c2cc[n+](CCC(=O)[O-])nc2)n1 [Compound 1.015] | 100 |  |  |  | 100 | 100 |  | 30 | 100 | 80 | 100 | 80 |  |  |  |  |  | 
3 | O=C(O)CC[n+]1ccc(-c2cnccn2)cn1.[Cl-] [Compound 1.012, 3-(4-pyrazin-2-ylpyridazin-1-ium-1-yl)propanoic acid chloride] |  | 50 | 90 |  |  |  | 100 |  |  |  |  |  | 100 | 100 | 90 | 90 | 20 | 100
4 | CC(C[n+]1ccc(-c2ncccn2)cn1)S(=O)(=O)[O-] (stereo not shown) [Compound 1.026, 1-(4-pyrimidin-2-ylpyridazin-1-ium-1-yl)propane-2-sulfonate] | 100 |  |  | 100 | 100 | 80 |  | 70 | 80 | 80 | 100 | 90 |  |  |  |  |  | 
5 | N[C@@H](CC[n+]1ccc(-c2ncccn2)cn1)C(=O)O [Compound 1.035, [(1S)-1-carboxy-3-(4-pyrimidin-2-ylpyridazin-1-ium-1-yl)propyl]-ammonium 2,2,2-trifluoroacetate] | 90 |  |  | 100 | 100 | 60 |  | 90 | 100 | 20 | 100 | 90 |  |  |  |  |  | 
6 | O=S(=O)([O-])CC[n+]1ccc(-c2cccnn2)cn1 [Compound 1.002, 2-(4-pyridazin-3-ylpyridazin-1-ium-1-yl)ethanesulfonate] |  | 100 | 90 |  |  |  | 100 |  |  |  |  |  | 100 | 100 | 100 | 100 | 40 | 100
7 | Nc1ccnc(-c2cc[n+](CCS(=O)(=O)O)nc2)n1 [Compound 1.008] | 100 |  |  |  | 100 | 100 |  | 40 | 100 | 60 | 100 | 80 |  |  |  |  |  | 
